Test results: ChEMBL document CHEMBL1201862, “PubChem BioAssay data set” (2004)
Values belong to the compound of their own block, whether it stands above or below them. Calls of active or inactive are those of the source.

Legend:
[1] = biological target: T1, Low molecular weight phosphotyrosine protein phosphatase (Homo sapiens, UniProt P24666); type: functional; conditions: read-out: IC50_Mean;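 note: Dose-response confirmation assay measuring inhibition of LMPTP enzyme activity by fluorescence intensity read-out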
T1 sequence (P24666 whole entry): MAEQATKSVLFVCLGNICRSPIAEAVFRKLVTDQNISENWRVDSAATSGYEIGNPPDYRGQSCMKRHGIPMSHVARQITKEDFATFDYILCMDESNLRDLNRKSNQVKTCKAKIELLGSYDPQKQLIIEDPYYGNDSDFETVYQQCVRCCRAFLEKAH

[2] = biological target: T2, Fatty acid synthase (Homo sapiens, UniProt P49327); assay: inhibition of human FAS-TE enzyme activity – biochemical, endpoint fluorescence intensity, uHTS hits, dose response (AID 624327); type: functional;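 note: fluorescence from hydrolysis of an O-methyl fluorescein acyl ester substrate by the enzyme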
[3] = biological target: T2, Fatty acid synthase; assay: inhibition of human FAS-TE enzyme activity – biochemical, kinetic fluorescence intensity, dose response (AID 624326); type: functional;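 note: rate of fluorescence rise from hydrolysis of a fluorogenic O-methyl fluorescein ester substrate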
[4] = biological target: T3, Mitochondrial peptide methionine sulfoxide reductase (Bos taurus, UniProt P54149); assay: Absorbance-based biochemical high throughput dose response assay for activators of Methionine sulfoxide reductase A (MsrA).; type: functional
T3 sequence (P54149 whole entry): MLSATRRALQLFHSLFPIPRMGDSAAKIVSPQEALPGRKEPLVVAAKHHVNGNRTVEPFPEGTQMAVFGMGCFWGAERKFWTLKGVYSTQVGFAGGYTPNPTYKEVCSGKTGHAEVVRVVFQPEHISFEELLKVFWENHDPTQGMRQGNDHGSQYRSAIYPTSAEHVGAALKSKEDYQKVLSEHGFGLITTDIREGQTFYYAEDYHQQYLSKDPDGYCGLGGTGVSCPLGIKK

[5] = biological target: Phospholipase A2 (Homo sapiens, UniProt P04054); type: functional;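 note: confirmatory dose-response counterscreen on phospholipase A2, testing hits that came from an ultra-high-throughput screen for ATG4B inhibitors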
[6] = biological target: T4, Cysteine protease ATG4B (Homo sapiens, UniProt Q9Y4P1); type: functional;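 note: Fluorescence-based dose-response confirmation assay measuring inhibition of ATG4B activity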
T4 sequence (Q9Y4P1 whole entry): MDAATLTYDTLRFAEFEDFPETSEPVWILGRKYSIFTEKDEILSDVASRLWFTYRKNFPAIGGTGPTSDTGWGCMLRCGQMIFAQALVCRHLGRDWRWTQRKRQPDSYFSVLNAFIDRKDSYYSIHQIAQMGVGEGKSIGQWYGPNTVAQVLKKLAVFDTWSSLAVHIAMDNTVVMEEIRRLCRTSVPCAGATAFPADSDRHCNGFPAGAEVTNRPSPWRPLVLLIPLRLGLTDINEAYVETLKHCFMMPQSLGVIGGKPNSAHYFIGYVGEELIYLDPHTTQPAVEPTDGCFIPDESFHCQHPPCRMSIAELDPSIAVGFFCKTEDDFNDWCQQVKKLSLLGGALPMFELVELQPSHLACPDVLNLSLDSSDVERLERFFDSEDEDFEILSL

[7] = biological target: T5, CAAX prenyl protease 2 (Homo sapiens, UniProt Q9Y256); assay: inhibition of Ras-converting CAAX protease Rce1 – biochemical, yeast membranes, quenched-peptide fluorescence, cherry-pick, dose response (AID 588849)
T5 sequence (Q9Y256 whole entry): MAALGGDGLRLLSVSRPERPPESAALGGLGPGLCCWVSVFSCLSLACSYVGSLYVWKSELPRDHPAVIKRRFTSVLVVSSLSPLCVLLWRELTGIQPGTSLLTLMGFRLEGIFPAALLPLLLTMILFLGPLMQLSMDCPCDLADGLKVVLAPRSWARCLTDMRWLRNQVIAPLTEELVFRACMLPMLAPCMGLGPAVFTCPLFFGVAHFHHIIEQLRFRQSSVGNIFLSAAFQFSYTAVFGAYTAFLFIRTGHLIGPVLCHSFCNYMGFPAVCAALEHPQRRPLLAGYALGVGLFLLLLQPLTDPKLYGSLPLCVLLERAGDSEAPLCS

[8] = system: Streptococcus; assay: GAS UMAA2166 growth inhibition – luminescence, BacTiterGlo, counter-screen for streptokinase expression inhibitor project, dose response (AID 1915); type: functional, organism-based;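 note: potency for reduction of bacterial viability or growth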
[9] = system: Streptococcus sp. 'group A'; assay: Streptococcus pyogenes SK(-)GAS viability under kanamycin – luminescence, BacTiterGlo, confirmation, counter-screen for streptokinase expression inhibitor project, dose response (AID 1900); type: functional, organism-based
[10] = biological target: T6, Rac GTPase-activating protein 1 (Homo sapiens, UniProt Q9H0H5); assay: blockers of MgcRacGAP-driven Rac1 GTP hydrolysis – biochemical, ADP Hunter fluorescence, primary and confirmatory, confirmation (AID 624330); type: functional
T6 sequence (Q9H0H5 whole entry): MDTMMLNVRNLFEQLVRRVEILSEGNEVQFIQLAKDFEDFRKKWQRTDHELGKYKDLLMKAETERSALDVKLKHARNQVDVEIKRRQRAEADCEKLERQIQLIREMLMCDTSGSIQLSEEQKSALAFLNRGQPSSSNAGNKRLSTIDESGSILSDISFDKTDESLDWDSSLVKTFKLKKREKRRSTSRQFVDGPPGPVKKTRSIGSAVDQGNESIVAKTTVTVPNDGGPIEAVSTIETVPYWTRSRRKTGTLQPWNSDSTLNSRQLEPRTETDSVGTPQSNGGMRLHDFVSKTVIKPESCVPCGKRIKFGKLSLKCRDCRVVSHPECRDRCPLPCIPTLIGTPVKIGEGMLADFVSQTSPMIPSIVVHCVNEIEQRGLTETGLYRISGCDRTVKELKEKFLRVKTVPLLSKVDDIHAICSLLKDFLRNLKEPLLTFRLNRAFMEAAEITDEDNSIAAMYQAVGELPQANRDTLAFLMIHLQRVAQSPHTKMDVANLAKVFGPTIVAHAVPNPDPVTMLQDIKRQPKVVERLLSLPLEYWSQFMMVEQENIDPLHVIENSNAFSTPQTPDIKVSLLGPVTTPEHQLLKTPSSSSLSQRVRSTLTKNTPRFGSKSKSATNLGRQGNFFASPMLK

[11] = viability loss in HeLa cells – cytotoxicity control for MgcRacGAP inhibitor project, dose response (AID 624300); type: functional
[12] = reduction of Shn3 3'UTR-driven luciferase in osteoblasts – cell-based, Clone20 osteoblasts, firefly luciferase, cherry-picked, dose response (AID 624132); type: functional;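 note: firefly luciferase luminescence from reporter carrying the Shn3 3'UTR in osteoblasts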
[13] = biological target: T7, Galanin receptor type 3 (Homo sapiens, UniProt O60755); assay: Fluorescence-based cell-based primary high throughput dose response assay to identify antagonists of the Galanin Receptor 3 (GalR3).; type: functional
T7 sequence (O60755 whole entry): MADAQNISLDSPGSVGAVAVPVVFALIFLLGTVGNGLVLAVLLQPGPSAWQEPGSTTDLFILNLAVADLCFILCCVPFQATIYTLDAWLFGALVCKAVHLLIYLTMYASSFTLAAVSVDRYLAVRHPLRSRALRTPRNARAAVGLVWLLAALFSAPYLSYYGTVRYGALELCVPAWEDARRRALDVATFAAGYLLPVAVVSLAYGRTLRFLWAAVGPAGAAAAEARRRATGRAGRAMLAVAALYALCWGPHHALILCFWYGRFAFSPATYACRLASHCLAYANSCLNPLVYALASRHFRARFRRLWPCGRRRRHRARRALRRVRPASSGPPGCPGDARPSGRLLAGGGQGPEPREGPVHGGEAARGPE

[14] = cells; type: functional, cell-based; conditions: HEK-CNG
[15] = loss of viability in HepG2 cells – cell-based, CellTiter-Glo, cherry-picked, cytotoxicity control for Shn3 inhibitor project, dose response (AID 624134); type: functional
[16] = system: INS1; assay: INS-1E survival protection against cytokine death – cell-based, luminescence, retest, dose response (AID 449756); type: functional; conditions: Rattus norvegicus;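 note: cell death triggered by IL-1 beta plus TNF-alpha plus IFN-gamma mixture; protective hits raise ATP signal compared with cytokine alone wells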
[17] = non-specific 3'UTR reporter inhibition in Clone20-Shn3RL – cell-based, Renilla luciferase, cherry-picked, counter-screen for Shn3 inhibitor project, dose response (AID 624133); type: functional
[18] = system: BJ; assay: cells; type: functional, cell-based; conditions: Homo sapiens
[19] = system: BJ; assay: BJ-TERT fibroblast viability loss – cell-based, RAS-independent, luminescence, dose response (AID 1933); type: functional; conditions: Homo sapiens
[20] = DRD fibroblast viability loss – cell-based, non-viral oncogenic, luminescence, dose response (AID 1934); type: functional; conditions: Homo sapiens
[21] = biological target: Luciferin 4-monooxygenase (Photinus pyralis, UniProt P08659); assay: inhibition of purified Photinus pyralis luciferase – biochemical, luminescence, dose response (AID 1891)
[22] = system: BJ; assay: BJ-TERT-LT-ST fibroblast viability loss – cell-based, RAS-independent, luminescence, dose response (AID 1935); type: functional; conditions: Homo sapiens;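 note: BJ fibroblasts immortalized with TERT plus LT and ST oncogenes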
[23] = Luminescence Cell-Based Dose Confirmation HTS to Identify Inhibitors of Platelet Dense Granule Release. [Related pubchem assays: 1663 (Primary HTS), 1678 (Summary of Project)]; type: functional
[24] = system: HEK293; assay: EBV LMP1 TES2 canonical NF-kB signalling blockers – cell-based, HEK293, luciferase, cherry-pick, dose response (AID 588343); type: functional; conditions: Homo sapiens

T2 sequence (P49327 whole entry): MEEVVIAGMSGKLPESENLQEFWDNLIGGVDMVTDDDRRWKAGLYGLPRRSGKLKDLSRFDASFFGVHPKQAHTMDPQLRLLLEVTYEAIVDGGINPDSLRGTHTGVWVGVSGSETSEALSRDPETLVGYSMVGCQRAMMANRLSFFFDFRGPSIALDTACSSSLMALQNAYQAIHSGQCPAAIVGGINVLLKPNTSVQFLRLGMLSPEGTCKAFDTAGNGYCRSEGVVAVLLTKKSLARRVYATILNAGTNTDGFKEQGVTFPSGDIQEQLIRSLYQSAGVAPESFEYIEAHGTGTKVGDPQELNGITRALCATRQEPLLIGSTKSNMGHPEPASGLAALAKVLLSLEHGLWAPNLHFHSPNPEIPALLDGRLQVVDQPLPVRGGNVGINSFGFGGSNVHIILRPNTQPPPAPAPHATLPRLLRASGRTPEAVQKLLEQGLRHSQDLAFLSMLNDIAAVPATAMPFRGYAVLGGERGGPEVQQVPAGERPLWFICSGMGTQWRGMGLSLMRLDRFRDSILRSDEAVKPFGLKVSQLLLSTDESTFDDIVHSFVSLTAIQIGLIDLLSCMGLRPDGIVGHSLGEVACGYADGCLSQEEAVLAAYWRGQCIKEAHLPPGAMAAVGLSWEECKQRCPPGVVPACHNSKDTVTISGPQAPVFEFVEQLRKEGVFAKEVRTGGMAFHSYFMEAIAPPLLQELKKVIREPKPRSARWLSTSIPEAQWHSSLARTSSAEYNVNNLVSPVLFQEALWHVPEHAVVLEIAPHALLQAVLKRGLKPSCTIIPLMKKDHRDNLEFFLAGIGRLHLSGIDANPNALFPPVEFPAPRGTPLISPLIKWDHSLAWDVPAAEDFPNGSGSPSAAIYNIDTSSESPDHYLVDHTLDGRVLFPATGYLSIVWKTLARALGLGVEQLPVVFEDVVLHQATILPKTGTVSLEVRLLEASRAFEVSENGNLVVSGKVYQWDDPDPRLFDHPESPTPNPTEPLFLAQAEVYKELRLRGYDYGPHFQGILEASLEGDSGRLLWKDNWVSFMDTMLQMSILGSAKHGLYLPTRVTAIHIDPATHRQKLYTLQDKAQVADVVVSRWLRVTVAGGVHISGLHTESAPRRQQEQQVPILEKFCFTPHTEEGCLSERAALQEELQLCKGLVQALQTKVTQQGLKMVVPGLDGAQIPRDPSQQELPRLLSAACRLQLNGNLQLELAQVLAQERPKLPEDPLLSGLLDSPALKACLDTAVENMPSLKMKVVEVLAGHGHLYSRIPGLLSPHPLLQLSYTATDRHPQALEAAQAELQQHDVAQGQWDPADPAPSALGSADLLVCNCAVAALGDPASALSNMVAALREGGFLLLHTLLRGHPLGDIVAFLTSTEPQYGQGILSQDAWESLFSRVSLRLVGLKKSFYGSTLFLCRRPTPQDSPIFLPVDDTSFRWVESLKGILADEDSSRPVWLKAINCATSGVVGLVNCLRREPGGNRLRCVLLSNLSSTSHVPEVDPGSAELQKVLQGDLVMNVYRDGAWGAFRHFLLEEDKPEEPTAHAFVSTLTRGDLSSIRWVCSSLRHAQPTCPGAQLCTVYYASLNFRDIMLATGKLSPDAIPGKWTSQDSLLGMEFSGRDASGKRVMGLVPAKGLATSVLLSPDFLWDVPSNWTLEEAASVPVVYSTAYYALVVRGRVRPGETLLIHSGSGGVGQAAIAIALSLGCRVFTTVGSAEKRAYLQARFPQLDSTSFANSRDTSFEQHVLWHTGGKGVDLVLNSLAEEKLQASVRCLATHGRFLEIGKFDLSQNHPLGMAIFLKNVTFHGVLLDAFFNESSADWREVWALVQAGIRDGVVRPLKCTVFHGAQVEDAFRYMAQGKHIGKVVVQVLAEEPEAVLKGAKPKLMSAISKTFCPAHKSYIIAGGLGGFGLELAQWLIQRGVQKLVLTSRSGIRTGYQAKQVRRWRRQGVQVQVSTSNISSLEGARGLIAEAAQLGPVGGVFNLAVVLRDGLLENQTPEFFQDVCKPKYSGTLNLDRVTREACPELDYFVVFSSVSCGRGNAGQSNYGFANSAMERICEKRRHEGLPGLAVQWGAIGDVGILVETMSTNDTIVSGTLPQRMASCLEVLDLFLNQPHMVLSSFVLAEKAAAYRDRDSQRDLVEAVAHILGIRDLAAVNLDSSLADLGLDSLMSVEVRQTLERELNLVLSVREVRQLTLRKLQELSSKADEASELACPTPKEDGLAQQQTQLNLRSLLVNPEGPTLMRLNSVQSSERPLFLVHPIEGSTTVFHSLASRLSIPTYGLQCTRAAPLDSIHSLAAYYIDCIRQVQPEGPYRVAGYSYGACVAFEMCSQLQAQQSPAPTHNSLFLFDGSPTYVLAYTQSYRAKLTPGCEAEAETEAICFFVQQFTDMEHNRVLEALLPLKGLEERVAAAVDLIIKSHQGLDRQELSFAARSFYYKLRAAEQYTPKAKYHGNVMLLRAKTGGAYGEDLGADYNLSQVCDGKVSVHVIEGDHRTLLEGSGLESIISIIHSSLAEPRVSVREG
Chain of Luciferin 4-monooxygenase (P08659 whole entry): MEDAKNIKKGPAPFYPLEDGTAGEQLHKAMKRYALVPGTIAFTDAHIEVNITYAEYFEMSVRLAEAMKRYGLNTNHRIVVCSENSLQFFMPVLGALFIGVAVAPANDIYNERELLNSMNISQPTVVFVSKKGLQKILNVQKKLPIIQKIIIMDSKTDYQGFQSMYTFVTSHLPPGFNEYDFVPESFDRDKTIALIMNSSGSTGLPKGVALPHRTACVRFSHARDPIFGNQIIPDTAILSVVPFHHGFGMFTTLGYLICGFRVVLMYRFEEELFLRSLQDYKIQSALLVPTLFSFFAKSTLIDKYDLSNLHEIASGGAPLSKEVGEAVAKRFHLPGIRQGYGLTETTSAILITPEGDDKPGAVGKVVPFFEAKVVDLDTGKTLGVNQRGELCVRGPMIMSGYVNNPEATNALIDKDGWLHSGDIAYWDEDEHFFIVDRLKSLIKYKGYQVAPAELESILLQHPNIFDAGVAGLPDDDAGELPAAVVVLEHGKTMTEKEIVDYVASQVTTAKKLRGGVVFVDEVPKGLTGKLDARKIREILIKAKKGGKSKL
Chain of Phospholipase A2 (P04054 whole entry): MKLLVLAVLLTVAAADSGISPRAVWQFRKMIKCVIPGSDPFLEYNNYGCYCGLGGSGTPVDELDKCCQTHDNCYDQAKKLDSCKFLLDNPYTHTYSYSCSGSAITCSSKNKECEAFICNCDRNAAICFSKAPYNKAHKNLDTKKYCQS

IC50 [1]: 73.8 µM (inactive)
Compound: CCn1cc(C(=O)O)c(=O)c2cc(F)c(N3CCN(C(=S)Nc4ccc(OC)cc4)CC3)cc21

IC50 [10]: 50.3 µM (active)
Compound: CCN(CC)c1ccc(Nc2nc(Cl)ncc2Br)cc1
CC50 [11]: 100 µM (active)

The remaining lines, values behind:

Compound: Cc1ccc(S(=O)(=O)/N=C(\Sc2ccccc2)c2ccccc2)cc1
IC50 [2]: 11 µM (active)
IC50 [3]: 54 µM (inactive)

Compound: O=C(COC(=O)c1cc([N+](=O)[O-])ccc1NCCO)NCc1cccs1
IC50 [2]: 3.84 µM (active)
IC50 [3]: 1.68 µM (active)

Compound: CC(C)COC(=O)c1ccc(N2C(=O)c3ccccc3C2=O)cc1
EC50 [4]: > 104 µM (inactive)
IC50 [5]: 66.5 µM (inactive)
IC50 [6]: 16.2 µM (active)

Compound: C[C@H]1COc2c(N3CCN(C)CC3)c(F)cc3c(=O)c(C(=O)O)cn1c23 [LEVOFLOXACIN]
AC50 [7]: 41 µM (active)
EC50 [8]: 0.911 µM (active)
EC50 [9]: 2.1 µM (active)

Compound: NC(=O)c1ccc(N2CCN(S(=O)(=O)c3cccs3)CC2)c([N+](=O)[O-])c1
AC50 [12]: 0.305 µM (active)
IC50 [13]: 1.09 µM (active)
EC50 [14]: > 29.9 µM (inactive)
AC50 [15]: 2.54 µM (active)
AC50 [16]: 3.67 µM (active)
AC50 [17]: 6.21 µM (active)

Compound: Cn1c(/C=C/c2ccccc2)nc2ccccc21
EC50 [18]: 7.95 µM (active)
EC50 [19]: 10.8 µM (active)
EC50 [20]: 8.49 µM (active)
EC50 [21]: 1.09 µM (active)
EC50 [22]: 18.9 µM (active)
EC50 [23]: 1.89 µM (active)
AC50 [24]: 3.81 µM (active)
